Results: patent US20140357512A1, “HISTONE DEACETYLASE (HDAC) BIOMARKERS IN MULTIPLE MYELOMA” (priority 2013, published 2014)

System: human myeloma cell line MM.1S
Test: SILAC acetylated-lysine peptide profiling, HDAC inhibitor vs DMSO (light/heavy ratio)
Assay type: cell-based
Source text: An embodiment of the invention comprises utilizing the SILAC method in order to quantitate changes in protein expression between two or more populations of cells. The SILAC method is a technique based on mass spectrometry that detects differences in protein abundance among samples using non-radioactive isotopic labeling. The SILAC method is known in the art, and described in detail in Ong et al., “Stable Isotope Labeling by Amino Acids in Cell Culture, SILAC, as a Simple and Accurate Approach to Expression Proteomics”, Molecular & Cellular Proteomics, vol. 1, pp. 376-386 (2002), which is incorporated herein by reference in its entirety.
Briefly, the SILAC method involves growing two populations of cells in cell culture. The first population of cells is grown in growth media containing normal amino acids (“normal media”). The second population of cells is grown in media lacking a standard essential amino acid (such as lysine), but is then supplemented with a non-radioactive, isotopically labeled form of that essential amino acid (such as lysine labeled with ^13C atoms, rather than normal ^12C atoms), which is called “heavy media”. When the two populations of cells are each growing in the medium, they incorporate the amino acids into all of their proteins. The growth of cells maintained in the heavy media is no different from that in normal media. All peptides containing the heavy amino acids are heavier than their normal counterparts. The cells from each of the two populations of cells are lysed. The lysates from each of the two cell populations are then combined. The combined cell lysates are then analyzed by mass spectrometry. Pairs of chemically identical peptides of different stable isotope composition can be differentiated in a mass spectrometer due to their difference in mass. The ratio of peak intensities in the mass spectrum for such peptide pairs reflects the abundance ratio for the two proteins.
This example describes SILAC studies that were performed to compare the effects of three different HDAC inhibitors (Compound A, Compound B, and tubastatin A) to a control on a human multiple myeloma cell line. The HDAC inhibitors were also compared amongst themselves to determine differences in their effects.
A human myeloma cell line MM.1S was grown using either ^12C (light) or ^13C (heavy) lysine containing culture medium. The “heavy” cells were treated with DMSO as the control, and the “light” cells were treated with a single HDAC inhibitor at 37° C. for 6 hours. The heavy and light cells were lysed, and the lysates were mixed in 1:1 ratio and digested with the protease trypsin. The acetylated lysine containing peptides (due to the action of the HDAC inhibitor) in the digested peptide pool were captured by a non-specific anti-acetylated lysine antibody cocktail (the antibodies identify both light and heavy acetylated peptides), and subjected to mass spectrometry analysis in order to identify thousands of individual peptides.
Thousands of peptides were identified in pairs (^12C and ^13C) due to their known mass differences. The amino acid sequence and quantitative ratio (Light/Heavy) of a given peptide in two differentially treated cell lysates were then determined and annotated with their possible protein (gene) sources.
As stated above, three HDAC inhibitors (Compound A, Compound B, and Tubastatin A) were used. Thus, the SILAC method was performed three times, with a different HDAC inhibitor compared to a control each time. Accordingly, there are three pairs of quantitative data in the table below, i.e., Compound A:DMSO, Compound B:DMSO, and Tubastatin A:DMSO. A cut-off of 1.30 fold of change (increase or decrease) was then used to determine “changed” or “+” in the table, and any peptides with a fold of change less than 1.3 fold were determined to be “unchanged” or “0” in the table. Those peptides that were not identified were marked as “NA” in the table. […]

SMILES: O=C(CCCCCCNC(=O)c1cnc(N(c2ccccc2)c2ccccc2)nc1)NO [Compound A, 2-(diphenylamino)-N-(7-(hydroxyamino)-7-oxoheptyl)pyrimidine-5-carboxamide]
- L/H ratio of acetylated peptide TVGQLYK(ac)EQLAK (SEQ ID NO: 731, Isoform 1 of Myosin-9 [651], MYH9): 0.75 log 2
- L/H ratio of acetylated peptide AAETCQEPK(ac)EFR (SEQ ID NO: 732, NADH dehydrogenase [ubiquinone] 1 alpha subcomplex assembly factor 4 [91], NDUFAF4): 0.75 log 2
- L/H ratio of acetylated peptide VVLIGDSGVGK(ac)SNLLSR (SEQ ID NO: 733, Ras-related protein Rab-11B [24], RAB11B): 0.76 log 2
- L/H ratio of acetylated peptide SGK(ac)YVLGYK (SEQ ID NO: 734, 60S ribosomal protein L30 [26], RPL30): 0.76 log 2
- L/H ratio of acetylated peptide ILMEHIHK(ac)LK (SEQ ID NO: 735, 60S ribosomal protein L19 [144], RPL19): 0.76 log 2
- L/H ratio of acetylated peptide EK(ac)VFYSLMR (SEQ ID NO: 736, Epoxide hydrolase 1 [288], EPHX1): 0.78 log 2
- L/H ratio of acetylated peptide K(ac)FDQLLAEEK (SEQ ID NO: 737, Isoform 1 of Myosin-9 [1445], MYH9): 0.78 log 2
- L/H ratio of acetylated peptide FVEFDMK(ac)PVCK (SEQ ID NO: 738, Isoform 2 of LIM and senescent cell antigen-like-containing domain protein 2 [326], LIMS2): 0.79 log 2
- L/H ratio of acetylated peptide K(ac)GFITVDGR (SEQ ID NO: 739, Laminin subunit alpha-1 [2808], LAMA1): 0.79 log 2
- L/H ratio of acetylated peptide KAEAQIAAK(ac)NLDK (SEQ ID NO: 740, Aspartate aminotransferase mitochondrial [90], GOT2): 0.80 log 2
- L/H ratio of acetylated peptide DK(ac)QFVAK (SEQ ID NO: 741, Staphylococcal nuclease domain-containing protein 1 [341], SND1): 0.80 log 2
- L/H ratio of acetylated peptide AGACNTVIK(ac)QLMR (SEQ ID NO: 742, Isoform SERCA3B of Sarcoplasmic/endoplasmic reticulum calcium ATPase 3 [476], ATP2A3): 0.82 log 2
- L/H ratio of acetylated peptide KQQAK(ac)FDECVLDK (SEQ ID NO: 743, NADH dehydrogenase [ubiquinone] 1 alpha subcomplex subunit 8 [106], NDUFA8): 0.82 log 2
- L/H ratio of acetylated peptide ALCTGEK(ac)GFGYK (SEQ ID NO: 744, Peptidyl-prolyl cis-trans isomerase F mitochondrial [86], PPIF): 0.82 log 2
- L/H ratio of acetylated peptide IYK(ac)SDGIK (SEQ ID NO: 745, ADP/ATP translocase 2 [166], SLC25A5): 0.83 log 2
- L/H ratio of acetylated peptide DEGGK(ac)AFFK (SEQ ID NO: 746, ADP/ATP translocase 2 [268], SLC25A5): 0.84 log 2
- L/H ratio of acetylated peptide SYLK(ac)EFR (SEQ ID NO: 747, Isoform 1 of Trans-23-enoyl-CoA reductase [291], TECR): 0.85 log 2
- L/H ratio of acetylated peptide VPK(ac)TAENFR (SEQ ID NO: 748, Peptidyl-prolyl cis-trans isomerase D [43], PPID): 0.85 log 2
- L/H ratio of acetylated peptide VNCLDK(ac)FWHK (SEQ ID NO: 749, Isoform 1 of LIM and SH3 domain protein 1 [23], LASP1): 0.85 log 2
- L/H ratio of acetylated peptide KGEDFVK(ac)TLK (SEQ ID NO: 750, Malate dehydrogenase mitochondrial [335], MDH2): 0.85 log 2
- L/H ratio of acetylated peptide EAEFTK(ac)SIAK (SEQ ID NO: 751, Signal peptidase complex subunit 2 [191], LOC653566, SPCS2): 0.86 log 2
- L/H ratio of acetylated peptide SGYYK(ac)VLGK (SEQ ID NO: 752, 60S ribosomal protein L27a [110], RPL27A): 0.86 log 2
- L/H ratio of acetylated peptide YVLGYK(ac)QTLK (SEQ ID NO: 753, 60S ribosomal protein L30 [32], RPL30): 0.87 log 2
- L/H ratio of acetylated peptide FEDK(ac)TVAYTEQK (SEQ ID NO: 754, Protein disulfide-isomerase A3 [218], PDIA3): 0.88 log 2
- L/H ratio of acetylated peptide IVNALK(ac)SQVDK (SEQ ID NO: 755, Ornithine aminotransferase mitochondrial [102], OAT): 0.88 log 2
- L/H ratio of acetylated peptide ILEFFGLK(ac)K (SEQ ID NO: 756, Protein disulfide-isomerase [308], P4HB): 0.89 log 2
- L/H ratio of acetylated peptide LCGQDLNK(ac)TSR (SEQ ID NO: 757, Isoform 1 of UDP-N-acetylglucosamine--dolichyl-phosphate N-acetylglucosaminephospho-, DPAGT1): 0.89 log 2
- L/H ratio of acetylated peptide (SFDK(ac)NLYR (SEQ ID NO: 477), DNA replication licensing factor MCM4 [220], MCM4): −0.55 log 2
- L/H ratio of acetylated peptide LFAK(ac)[…] (SEQ ID NO: 98) (SFPQ [319], log 2 scale, drug vs DMSO): 0.00
- L/H ratio of acetylated peptide […](ac)GK (SEQ ID NO: 99) (SFPQ [330], log 2 scale, drug vs DMSO): 0.00
- L/H ratio of acetylated peptide GFGFIK(ac)LESR (SEQ ID NO: 97) (SFPQ [338], log 2 scale, drug vs DMSO): 0.00
- L/H ratio of acetylated peptide […](ac)MILIGR (SEQ ID NO: 100) (SFXN1 [86], log 2 scale, drug vs DMSO): 0.00
- L/H ratio of acetylated peptide […](ac)DK (SEQ ID NO: 103) (SLC25A5 [92], log 2 scale, drug vs DMSO): 0.00
- L/H ratio of acetylated peptide AFFK(ac)GAWSNVLR (SEQ ID NO: 102) (SLC25A5 [272], log 2 scale, drug vs DMSO): 0.00
- L/H ratio of acetylated peptide […](ac)ANVAK (SEQ ID NO: 101) (SLC25A10 [173], log 2 scale, drug vs DMSO): 0.00
- L/H ratio of acetylated peptide TWEK(ac)LLLAAR (SEQ ID NO: 104) (SNORA6, RPSAP15, SNORA62, RPSA [57], log 2 scale, drug vs DMSO): 0.00
